Here are results for 18 compounds from patent publication US20100298280A1, “Compounds for the Modulation of Huntingtin Aggregation, Methods and Means for Identifying Such Compounds” (priority 2007, published 2010).

The test system of data set [1] is CHO-AA8/Q68-Q68 cells. The experiment in a line: Propidium iodide exclusion assay (viability, cell number) following the FRET assay. As to conditions: after 48 h; for Viability (effect in words) / Viability ↓ (concentration): propidium iodide exclusion. As to the method: CHO-AA8/Q68-Q68, CHO-AA8/Q17-Q17 and CHO-AA8 cells were seeded in 96 well plates. After attachment of the cells, the medium was exchanged for Ham's F 12 medium containing 10% doxicycline free FBS and 2% DMSO supplemented with compounds. After 48 h the fluorescence intensities of cells were measured using a fluorescence plate reader (Fluoroscan Ascent, Thermo Scietific) and filtersets for CFP (ex 444 nm, em 485 nm), YFP(ex 485 nm, em 538 nm) and FRET (ex 444 nm, em 538 nm). After correction of background fluorescence (subtraction of CHO-AA8 cell fluorescence intensities) the FRET signal was determined using the method: FA=(FRET-a*YFP)/CFP with a=0.11 (Zal u. Gascoigne 2004, Zal et al. 2002). In following, the viability of cells was measured using a propidium iodide exclusion assay (Sattler et al. 1997). PI was added to the cells at final concentration of 0.15 mg/ml. After 15 minutes the PI fluorescence intensity was measured (ex 530 nm, em 620 nm). The cells were then lysed with 0.5% Triton X-100 (TX100) and the PI fluorescence intensity was measured again. Viability of cells was calculated as viability=1−(PIbefore TX100/PIafter TX100).
(§1) The FRET-measurement was performed 48 h later.

Data set [2] concerns the target T1, mutant huntingtin aggregates (HDex1Q68 fused to ECFP/EYFP) (Homo sapiens, UniProt P42858, INS38QQQQQQQQQQQQQQQQQQQQQQQQQQQQQQQQQQQQQQQQQQQQQQQ). Put plainly: Cellular FRET aggregation assay in stable Tet-off CHO-AA8/Q68-Q68 cells. The format is cell-based. As to conditions: for apparent inhibitory effects due to toxic effects (concentration): FRET decrease attributed to toxicity. As to the method:
To determine the potential of possibly inhibiting substances the inventors performed dose response assays at concentrations ranging from 1, to 100 μM.
Screening was performed in 96-well plates (greiner bio-one) containing 1×10^4 cells/well of the stably inducible tet off cell lines htt-mut (six-fold) and CHO-AA8 line (three fold) for background control. Simultaneously, each compound was checked for its potential autofluorescence.
Two stable inducible CHO Tet off cell lines were constructed expressing simultaneously wildtype (CHO-AA8/Q17-Q17) or mutant (CHO-AA8/Q68-Q68) huntingtin fragments fused to ECFP or EYFP (FIG. 1B) after withdrawal of doxicycline (dox). Basal and induced expression levels of huntingtin fusion proteins were examined by Western blot analysis at different time intervals (4, 24, 48, and 72 hours). […] For the screening approach stable inducible huntingtin expressing cell lines were seeded in 96-well plates and the fluorescence intensities were measured with a fluorescence plate reader.
The test compounds were mixed in a fresh doxicycline-free medium with 2% DMSO and added to the Tet off cell lines two to three hours after seeding and attachment of the cells.
as §1
Subsequently, a second screening round was performed at concentration range 1, 3, and 10 μM, respectively.

The target in data set [3] is T1, mutant huntingtin aggregates (HDex1Q68 fused to ECFP/EYFP). Described as above. The format is cell-based. The following applies: half-maximal inhibition of FRET signal, dose response 0.7-50 μM.
In data set [4] the target is T2, GST-tagged mutant htt-exon-1 with 51 polyglutamines (GST-HDexQ51) (Homo sapiens, UniProt P42858, INS38QQQQQQQQQQQQQQQQQQQQQQQQQQQQQQ).
T2 construct: GST-tagged mutant htt-exon-1 with 51 polyglutamines (GST-HDexQ51); GST (N, cleaved yes)
Put plainly: Cell free filter retardation assay. The format is biochemical. The following applies: tested 1-200 μM. As to the method: To determine if the cellular environment is a prerequisite for the inhibitory effect of the isolated natural compounds or if the compounds directly interfere with the aggregation process, the inventors performed a cell free filter retardation assay (Scherzinger et al., 1997).
Briefly, GST-tagged mutant htt-exon-1 with 51 polyglutamines (GST-HDexQ51) is incubated with the compounds and factor Xa to remove the GST tag for proper aggregation (16 h, 23° C.). The aggregated peptides are denaturized by boiling in SDS buffer (10 min, 99° C.) and filtered though a cellulose acetate membrane. The insoluble aggregates are retained at the membrane and detected with an anti-huntingtin antibody.
The isolated natural compounds, PGL-135 and congo red were tested in a concentration range of 1-200 μM. […] (Data not shown). Concentration of less than 50 μM congo red produced an enhancement of the aggregation process.

Data set [5] has as its system mutant huntingtin aggregates. The experiment in a line: Filter retardation assay on lysates of treated cells (immunodetection). The class given is cell-based. As to conditions: increasing concentrations. As for the experimental part:
(C) Immunodetection of mutant huntingtin aggregates upon PGL-135 treatment of cells using a filter retardation assay.
The filter retardation assay was accomplished as described (Scherzinger et al., 1999). Cells were lysed (100 mM NaCl, 5 mM MgCl2, 0.5% NP-40, 1 mM EDTA, 50 mM Tris-HCl, protease inhibitors, 25 U/mL benzonase, pH 8.8), denatured 5 min at 95° C. with 2% SDS/50 mM DTT and cell lysates equal 2 μg protein were filtered through a 0.2 μm cellulose acetate membrane (Schleicher & Schuell) using a dot blot unit. The immunodetection was performed using the same antibody detection system as described above. Quantitative determination of the relative aggregate amount was evaluated with the Lumi Imager F1 System and Lumi Analyst 3.0 (Boehringer Mannheim, Germany).
The coherence between decreasing FRET values and less polyglutamine aggregates in PGL-135 treated cells was further validated by fluorescence microscopy imaging (data not shown) and a filter retardation assay (Heiser et al., 2000) (FIG. 2C).

“Also recorded” adds a separate entry of the source. Bounds are passed on as bounds.

T2 sequence (P42858 with tags, fused parts or gaps with the stated changes): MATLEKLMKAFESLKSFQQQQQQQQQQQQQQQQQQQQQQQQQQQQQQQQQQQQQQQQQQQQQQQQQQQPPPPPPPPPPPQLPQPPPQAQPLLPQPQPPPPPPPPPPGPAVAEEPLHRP
T1 sequence (P42858 1-88, stated change not applied): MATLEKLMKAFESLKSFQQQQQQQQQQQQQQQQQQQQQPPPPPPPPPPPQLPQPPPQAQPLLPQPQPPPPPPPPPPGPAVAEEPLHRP

As to half-Chrysamine G, in data set [1], the “Cell number (effect in words)” value was “no effect” and the “Viability (effect in words)” value is reported as “no effect”. In data set [2] (48 h, 2% DMSO), the “FRET-signal (effect in words)” value is on record as “no effect” and the “FRET-signal ↓ (concentration from which aggregation is reduced)” value is greater than 2.5 µM.
In turn, `C=C1[C@@H]2CC[C@@]3(C)[C@H](c4ccoc4)OC(=O)C[C@]13O[C@H]1CC(=O)C(C)(C)[C@H](CC(=O)OC)[C@]12C` [S2, angolensic acid methylester] had a concentration giving a half-maximal response (EC50) in data set [3] of 3000 nM. This counts as single-digit micromolar.
For the compound `O=C(O)Cc1ccccc1Nc1c(Cl)cccc1Cl` [Diclofenac], in data set [1], the “Cell number ↓ (concentration)” value is reported as “↓ ≧250 nM” and the “Viability (effect in words)” value is “no effect”. Also, the “FRET-signal (effect in words)” value in data set [2] (48 h, 2% DMSO) is on record as “no effect”. Further, the “FRET-signal (effect in words)” value in data set [2] (48 h, 2% DMSO, listed as diclofenac) is listed as “no effects”.
Turning to `COC1=C2C[C@@H](C)C[C@H](OC)[C@H](O)[C@@H](C)/C=C(\C)[C@H](OC(N)=O)[C@@H](OC)/C=C\C=C(/C)C(=O)NC(=CC1=O)C2=O` [geldanamycin], in data set [1], the “Cell number (effect in words)” value was “no effect” and the “Viability (effect in words)” value is listed as “no effect”.
As to `Nc1nc2ccc(OC(F)(F)F)cc2s1` [Riluzole], in data set [1], the “Cell number (effect in words)” value is “no effect” and the “Viability (effect in words)” value is on record as “no effect”.
With `CN(CC(=O)O)C(=N)N` [Creatine], in data set [1], the “Cell number (effect in words)” value was “no effect” and the “Viability (effect in words)” value is reported as “no effect”. For the same compound, the “FRET-signal (effect in words)” value in data set [2] (48 h, 2% DMSO) is “no effect”. Besides, in data set [2] (48 h, 2% DMSO, listed as creatin), the “FRET-signal (effect in words)” value is recorded as “no effects”.
Take `O=C(CCCCCN1C(=O)c2cccc3cccc(c23)C1=O)NO` [Scriptaid]: in data set [1], the “Cell number (effect in words)” value is given as “decreased”, the “Cell number ↓ (concentration)” value is given as “↓ ≧25 μM” and the “Viability ↓ (concentration)” value is reported as “↓ ≧25 μM”. In addition, in data set [2] (48 h, 2% DMSO), the “FRET-signal ↑ (concentration from which aggregation is increased)” value is listed as “↑ ≧25 μM”.
`Nc1c(/N=N/c2ccc(-c3ccc(/N=N/c4cc(S(=O)(=O)O)c5ccccc5c4N)cc3)cc2)cc(S(=O)(=O)O)c2ccccc12` [congo red]: in data set [1], the “Cell number ↓ (concentration)” value was “↓ ≧125 μM” and the “Viability (effect in words)” value is reported as “no effect”. Moreover, in data set [2] (48 h, 2% DMSO), the “FRET-signal ↓ (concentration from which aggregation is reduced)” value is “↓ ≧30 μM”. In addition, the “FRET-signal ↓ (concentration from which aggregation is reduced)” value in data set [2] (48 h, 2% DMSO, listed as Congo red) was greater than 30 µM. In data set [4] (16 h, 23° C.), the “enhancement of the aggregation process (concentration)” value is “less than 50 μM” and the “inhibited the formation of aggregates (concentration)” value was greater than 50 µM.
As for `COc1ccc2c(c1)c(CC(=O)O)c(C)n2C(=O)c1ccc(Cl)cc1` [Indomethacin], in data set [1], the “Cell number ↓ (concentration)” value is given as “↓ ≧1.25 μM” and the “Viability ↓ (concentration)” value was “↓ 10 μM”. Moreover, the “FRET-signal ↓ (concentration from which aggregation is reduced)” value in data set [2] (48 h, 2% DMSO) is listed as “↓ ≧1.25 μM”.
For the compound `COC1=C(OC)C(=O)C(C/C=C(\C)CC/C=C(\C)CC/C=C(\C)CC/C=C(\C)CC/C=C(\C)CC/C=C(\C)CC/C=C(\C)CC/C=C(\C)CC/C=C(\C)CCC=C(C)C)=C(C)C1=O` [coenzyme Q10], in data set [1], the “Cell number (effect in words)” value is “no effect” and the “Viability (effect in words)” value is given as “no effect”. The “FRET-signal (effect in words)” value in data set [2] (48 h, 2% DMSO) was “no effect”.
Consider `O=C([O-])c1ccccc1O.[Na+]` [sodiumsalicylat], for which the “Viability (effect in words)” value in data set [1] is recorded as “no effect”. The “FRET-signal (effect in words)” value in data set [2] (48 h, 2% DMSO) is recorded as “no effect”; in data set [2] (48 h, 2% DMSO, listed as sodiumsalyicylate), “no effects”.
Turning to `CC(Cc1ccc(O)c(O)c1)C(C)Cc1ccc(O)c(O)c1` (stereo not shown) [NDGA], in data set [1], the “Cell number ↓ (concentration)” value is given as “↓ 500 nM” and the “Viability (effect in words)” value is “no effect”. In addition, the “FRET-signal (effect in words)” value in data set [2] (48 h, 2% DMSO) was “no effect”.
As for `O=C(O)c1cc(/N=N/c2ccc(-c3ccc(/N=N/c4ccc(O)c(C(=O)O)c4)cc3)cc2)ccc1O` [chrysamine G], in data set [1], the “Cell number (effect in words)” value is given as “no effect” and the “Viability (effect in words)” value is given as “no effect”. For the same compound, the “FRET-signal (effect in words)” value in data set [2] (48 h, 2% DMSO) was “no effect”. Also, in data set [2] (48 h, 2% DMSO, listed as Chrysamine G), the “FRET-signal (effect in words)” value is reported as “no effects”.
As to `NCCSSCCN` [Cystamine], in data set [1], the “Cell number (effect in words)” value is reported as “no effect” and the “Viability (effect in words)” value is given as “no effect”. In addition, the “FRET-signal (effect in words)” value in data set [2] (48 h, 2% DMSO) was “no effect”. The “FRET-signal (effect in words)” value in data set [2] (48 h, 2% DMSO, listed as cystamine dihydrochloride) is listed as “no effects”.
For `Cc1cc(O)c(C)c2sc(N)nc12` [PGL-135], in data set [1], the “Cell number (effect in words)” value is “no effect” and the “Viability (effect in words)” value is given as “not affected; also recorded: without affecting the cell viability; also recorded: no effect”. For the same compound, the “FRET-signal (effect in words)” value in data set [2] (48 h, 2% DMSO) is listed as “decrease”. The “inhibition of aggregate formation (in words)” value in data set [4] is on record as “Only congo red reliably inhibited the formation of aggregates”. Moreover, the “mutant huntingtin aggregates in filter retardation assay” value in data set [5] is reported as “significant decrease”.
Take `C[C@@H](N)[C@H]1CC[C@H](C(=O)Nc2ccncc2)CC1` [Y-27632]: in data set [1], the “Cell number (effect in words)” value is listed as “no effect” and the “Viability (effect in words)” value is listed as “no effect”. Moreover, in data set [2] (48 h, 2% DMSO), the “FRET-signal (effect in words)” value is listed as “no effect”. Besides, the “apparent inhibitory effects due to toxic effects (concentration)” value in data set [2] was greater than 12.5 µM.
Take `OC[C@H]1O[C@H](O[C@H]2O[C@H](CO)[C@@H](O)[C@H](O)[C@H]2O)[C@H](O)[C@@H](O)[C@@H]1O` [Trehalose]: in data set [1], the “Cell number (effect in words)” value is reported as “no effect”. In addition, the “Viability (effect in words)” value in data set [1] is given as “no effect”. Moreover, the “FRET-signal (effect in words)” value in data set [2] (48 h, 2% DMSO) was “no effect”; in data set [2] (48 h, 2% DMSO, listed as threhalose), “no effects”.
Turning to `C=CCNC1=C2C[C@@H](C)C[C@H](OC)[C@H](O)[C@@H](C)/C=C(\C)[C@H](OC(N)=O)[C@@H](OC)/C=C\C=C(/C)C(=O)NC(=CC1=O)C2=O` [17-AAG], in data set [1], the “Cell number ↓ (concentration)” value is listed as “↓ ≧0.3 μM” and the “Viability ↓ (concentration)” value is reported as “↓ ≧0.3 μM”. The “FRET-signal ↓ (concentration from which aggregation is reduced)” value in data set [2] (48 h, 2% DMSO) is given as “↓ ≧0.3 μM”. For the same compound, in data set [2], the “apparent inhibitory effects due to toxic effects (concentration)” value was greater than 0.7 µM.

As a reminder, the EC50 is the concentration that produces a half-maximal response. Read a low EC50 as an effect from little substance.
